We go through 24 compounds from patent US9670210B2, “Cyclopropylamines as LSD1 inhibitors” (Incyte Corporation, priority 2014, dated 2017).

The structures appear in SMILES notation.

In the first assay the target is T1, LSD-1 enzyme (Homo sapiens (Human), UniProt O60341). Briefly: biochemical.
Protocol: LSD1 Histone Demethylase Biochemical Assay
LANCE LSD1/KDM1A demethylase assay-10 μL of 1 nM LSD-1 enzyme (ENZO BML-SE544-0050) in the assay buffer (50 mM Tris, pH 7.5, 0.01% Tween-20, 25 mM NaCl, 5 mM DTT) were preincubated for 1 hour at 25° C. with 0.8 μL compound/DMSO dotted in black 384 well polystyrene plates. […] After stopping the reactions plates were incubated for 30 minutes and read on a PHERAstar FS plate reader (BMG Labtech).
A word on the IC50: it is the concentration that inhibits the measured activity by half. Turning to `COCC1(CN[C@@H]2C[C@H]2c2ccccc2)CCN(C(=O)N2CC(O)C2)CC1` [Example 111, 1-{[4-(methoxymethyl)-4-({[(1R,2S)-2-phenylcyclopropyl]amino}methyl)piperidin-1-yl]carbonyl}azetidin-3-ol], the IC50 was below 100 nM.

The target of another assay is T1, LSD-1 enzyme.
Assay: not given
Turning to `O=C(O)C1(CN2CCC(CN[C@@H]3C[C@H]3c3ccccc3)(COCC3CCC3)CC2)CCC1` [Example 93, 1-{[4-[(cyclobutylmethoxy)methyl]-4-({[(1R,2S)-2-phenylcyclopropyl]amino}methyl)piperidin-1-yl]methyl}cyclobutanecarboxylic acid], the 50% inhibitory concentration (IC50) was below 100 nM.
Same read-out and setting: to `O=C(O)C1(CN2CCC(CN[C@@H]3C[C@H]3c3ccccc3)(COC3CCCCC3)CC2)CC1` [Example 94, 1-{[4-[(cyclohexyloxy)methyl]-4-({[(1R,2S)-2-phenylcyclopropyl]amino}methyl)piperidin-1-yl]methyl}cyclopropanecarboxylic acid] belongs below 100 nM; to `O=C(O)C1(CN2CCC(CN[C@@H]3C[C@H]3c3ccccc3)(COC3CCCCC3)CC2)CCC1` [Example 95, 1-{[4-[(cyclohexyloxy)methyl]-4-({[(1R,2S)-2-phenylcyclopropyl]amino}methyl)piperidin-1-yl]methyl}cyclobutanecarboxylic acid], below 100 nM.
In turn, `O=C(O)C1(CN2CCC(CN[C@@H]3C[C@H]3c3ccccc3)(Cc3ccc(F)cn3)CC2)CC1` [Example 96, 1-{[4-[(5-fluoropyridin-2-yl)methyl]-4-({[(1R,2S)-2-phenylcyclopropyl]amino}methyl)piperidin-1-yl]methyl}cyclopropanecarboxylic acid] gave an IC50 below 100 nM.
On the same count and under the same terms, the result for `O=C(O)C1(CN2CCC(CN[C@@H]3C[C@H]3c3ccccc3)(Cc3ccc(F)cn3)CC2)CCC1` [Example 97, 1-{[4-[(5-fluoropyridin-2-yl)methyl]-4-({[(1R,2S)-2-phenylcyclopropyl]amino}methyl)piperidin-1-yl]methyl}cyclobutanecarboxylic acid] reads below 100 nM.
`COc1ccc(CC2(CN[C@@H]3C[C@H]3c3ccccc3)CCN(CC3(C(=O)O)CC3)CC2)cc1` [Example 98, 1-{[4-(4-methoxybenzyl)-4-({[(1R,2S)-2-phenylcyclopropyl]amino}methyl)piperidin-1-yl]methyl}cyclopropanecarboxylic acid] gave an IC50 below 100 nM.
With `COc1ccc(CC2(CN[C@@H]3C[C@H]3c3ccccc3)CCN(CC3(C(=O)O)CCC3)CC2)cc1` [Example 99, 1-{[4-(4-methoxybenzyl)-4-({[(1R,2S)-2-phenylcyclopropyl]amino}methyl)piperidin-1-yl]methyl}cyclobutanecarboxylic acid], the IC50 is below 100 nM.
`COCC1(CN[C@@H]2C[C@H]2c2ccccc2)CCN(C(=O)[C@H]2CC[C@H](CO)CC2)CC1` [Example 100, (trans-4-{[4-(methoxymethyl)-4-({[(1R,2S)-2-phenylcyclopropyl]amino}methyl)piperidin-1-yl]carbonyl}cyclohexyl)methanol]: the IC50 was below 100 nM.
Turning to `COCC1(CN[C@@H]2C[C@H]2c2ccccc2)CCN(C(=O)[C@H]2CC[C@@H](CO)CC2)CC1` [Example 101, (cis-4-{[4-(methoxymethyl)-4-({[(1R,2S)-2-phenylcyclopropyl]amino}methyl)piperidin-1-yl]carbonyl}cyclohexyl)methanol], the IC50 is below 100 nM.
Regarding `COCC1(CN[C@@H]2C[C@H]2c2ccccc2)CCN(C(=O)C2(C#N)CC2)CC1` [Example 102, 1-{[4-(methoxymethyl)-4-({[(1R,2S)-2-phenylcyclopropyl]amino}methyl)piperidin-1-yl]carbonyl}cyclopropanecarbonitrile], the IC50 was below 100 nM.
The same measure, in the same setting: the result for `COCC1(CN[C@@H]2C[C@H]2c2ccccc2)CCN(C(=O)c2cnn(CCO)c2)CC1` [Example 103, 2-(4-{[4-(methoxymethyl)-4-({[(1R,2S)-2-phenylcyclopropyl]amino}methyl)piperidin-1-yl]carbonyl}-1H-pyrazol-1-yl)ethanol] reads below 100 nM; that for `COCCn1cc(C(=O)N2CCC(CN[C@@H]3C[C@H]3c3ccccc3)(COC)CC2)cn1` [Example 104, (1R,2S)—N-{[1-{[1-(2-methoxyethyl)-1H-pyrazol-4-yl]carbonyl}-4-(methoxymethyl)piperidin-4-yl]methyl}-2-phenylcyclopropanamine], below 100 nM.
On the same count and under the same terms, the result for `COCC1(CN[C@@H]2C[C@H]2c2ccccc2)CCN(C(=O)c2cnn(C)c2)CC1` [Example 105, (1R,2S)—N-({4-(methoxymethyl)-1-[(1-methyl-1H-pyrazol-4-yl)carbonyl]piperidin-4-yl}methyl)-2-phenylcyclopropanamine] reads below 100 nM; that for `COCC1(CN[C@@H]2C[C@H]2c2ccccc2)CCN(C(=O)c2cnn(CCC#N)c2)CC1` [Example 106, 3-(4-{[4-(methoxymethyl)-4-({[(1R,2S)-2-phenylcyclopropyl]amino}methyl)piperidin-1-yl]carbonyl}-1H-pyrazol-1-yl)propanenitrile], below 100 nM.
For the compound `COCC1(CN[C@@H]2C[C@H]2c2ccccc2)CCN(C(=O)c2ccn(CCC#N)n2)CC1` [Example 107, 3-(3-{[4-(methoxymethyl)-4-({[(1R,2S)-2-phenylcyclopropyl]amino}methyl)piperidin-1-yl]carbonyl}-1H-pyrazol-1-yl)propanenitrile], the IC50 is below 100 nM.
Still for that read-out and setting: the result for `COCC1(CN[C@@H]2C[C@H]2c2ccccc2)CCN(C(=O)c2ccn(CCO)n2)CC1` [Example 108, 2-(3-{[4-(methoxymethyl)-4-({[(1R,2S)-2-phenylcyclopropyl]amino}methyl)piperidin-1-yl]carbonyl}-1H-pyrazol-1-yl)ethanol] reads below 100 nM; that for `COCC1(CN[C@@H]2C[C@H]2c2ccccc2)CCN(C(=O)N2CCC[C@@H](O)C2)CC1` [Example 109, (3R)-1-{[4-(methoxymethyl)-4-({[(1R,2S)-2-phenylcyclopropyl]amino}methyl)piperidin-1-yl]carbonyl}piperidin-3-ol], below 100 nM; that for `COCC1(CN[C@@H]2C[C@H]2c2ccccc2)CCN(C(=O)N2CCC[C@H](O)C2)CC1` [Example 110, (3S)-1-{[4-(methoxymethyl)-4-({[(1R,2S)-2-phenylcyclopropyl]amino}methyl)piperidin-1-yl]carbonyl}piperidin-3-ol], below 100 nM.
Turning to `COCC1(CN[C@@H]2C[C@H]2c2ccccc2)CCN(C(=O)N2CCC(O)CC2)CC1` [Example 112, 1-{[4-(methoxymethyl)-4-({[(1R,2S)-2-phenylcyclopropyl]amino}methyl)piperidin-1-yl]carbonyl}piperidin-4-ol], the half-maximal inhibitory concentration (IC50) is below 100 nM.
Still for that read-out and setting: the result for `COCC1(CN[C@@H]2C[C@H]2c2ccccc2)CCN(C(=O)N2CCC(OC)CC2)CC1` [Example 113, (1R,2S)—N-({4-(methoxymethyl)-1-[(4-methoxypiperidin-1-yl)carbonyl]piperidin-4-yl}methyl)-2-phenylcyclopropanamine] reads below 100 nM.
On the same count and under the same terms, to `COCC1(CN[C@@H]2C[C@H]2c2ccccc2)CCN(S(=O)(=O)c2cnn(C)c2)CC1` [Example 114, (1R,2S)—N-({4-(methoxymethyl)-1-[(1-methyl-1H-pyrazol-4-yl)sulfonyl]piperidin-4-yl}methyl)-2-phenylcyclopropanamine] belongs below 100 nM; to `COCC1(CN[C@@H]2C[C@H]2c2ccccc2)CCN(S(=O)(=O)c2ccnn2C)CC1` [Example 115, (1R,2S)—N-({4-(methoxymethyl)-1-[(1-methyl-1H-pyrazol-5-yl)sulfonyl]piperidin-4-yl}methyl)-2-phenylcyclopropanamine], below 100 nM.
Still for that read-out and setting: to `COCC1(CN[C@@H]2C[C@H]2c2ccccc2)CCN(S(=O)(=O)c2ccn(C)n2)CC1` [Example 116, (1R,2S)—N-({4-(methoxymethyl)-1-[(1-methyl-1H-pyrazol-3-yl)sulfonyl]piperidin-4-yl}methyl)-2-phenylcyclopropanamine] belongs below 100 nM.
